{
  "source": "patent US20200352905A1",
  "about": "“6-(2,4-DICHLOROPHENYL)-5-[4-[(3S)-1-(3-FLUOROPROPYL)PYRROLIDIN-3-YL]OXYPHENYL]-8,9-DIHYDRO-7H-BENZO[7]ANNULENE-2-CARBOXYLIC ACID FOR USE IN METASTATIC OR ADVANCED BREAST CANCER PATIENTS” (SANOFI, priority 2019, published 2020)",
  "key": {"[1]": {"experiment": "TED14856 Part B (dose expansion, 400 mg QD): safety, TEAEs", "format": "in vivo, human", "method": "Part B: Dose expansion study to evaluate the efficacy, safety, PK and PD of compound (1) administered at the RD (from Part A). […] A BID regimen (without omission on Day 2) may also be explored if found to be needed. Safety population includes all patients exposed to at least one dose of the study treatment. Treatment emergent adverse events (TEAEs) are analyzed according to current version of the Medical Dictionary for Regulatory Activities (MedDRA) dictionary. Laboratory abnormalities are analyzed according to the NCI-CTCAE v.4.03. Type, frequency, seriousness, severity and relatedness of study treatment TEAEs is analyzed on the safety population for each dose level. Similar analyses as for the escalation phase shall be performed."}, "[2]": {"system": "ER-positive and HER2-negative advanced breast cancer", "experiment": "TED14856 pooled population (Part A >=150 mg and Part B): post-hoc efficacy analyses and sub-populations", "conditions": "for Best Overall Response: Complete Response (CR), number of patients / Best Overall Response: Partial Response (PR), % of patients / Best Overall Response: Partial Response (PR), number of patients / Best Overall Response: Progressive Disease (PD), % of patients / Best Overall Response: Progressive Disease (PD), number of patients / Best Overall Response: Stable Disease (SD), % of patients / Best Overall Response: Stable Disease (SD), number of patients / Clinical Benefit Rate, % of patients / Clinical Benefit Rate, number of patients / Overall Response Rate (confirmed CR and PR), % of patients / Overall Response Rate (confirmed CR and PR), number of patients: no prior mTOR, CDK4/6, fulvestrant; for Clinical Benefit Rate (CBR): pooled population"}, "[3]": {"conditions": "All, pooled Part A ≥150 mg and Part B 400 mg (N = 14)"}, "[4]": {"conditions": "TED14856 2017-2019, pooled population n=59, setting 2-9L, prior CDK4/6, mTOR, fulvestrant allowed"}, "[5]": {"conditions": "TED14856 2017-2019, sub-population n=14, setting 2L+, no prior CDK4/6, mTOR, fulvestrant"}, "[6]": {"conditions": "TED14856 2017-2019, sub-population n=32, setting 3L, prior CDK4/6 allowed, prior mTOR not allowed, prior fulvestrant allowed"}, "[7]": {"conditions": "sub-population of 14 patients with neither prior targeted therapies nor SERD (3/14)"}},
  "data": [
    {"smiles": "O=C(O)c1ccc2c(c1)CCCC(c1ccc(Cl)cc1Cl)=C2c1ccc(O[C@H]2CCN(CCCF)C2)cc1", "note": "[compound (1), 6-(2,4-dichlorophenyl)-5-[4-[(3S)-1-(3-fluoropropyl)pyrrolidin-3-yl]oxyphenyl]-8,9-dihydro-7H-benzo[7]annulene-2-carboxylic acid]", "values": [
      {"measurement": "Patients with related Gr3 TEAE: Vomiting", "setting": "[1]; Part B, 400 mg, N=49", "value": 0, "unit": "n"},
      {"measurement": "Patients with related TEAE: ALT increased", "setting": "[1]; Part B, 400 mg, N=49", "value": 0, "unit": "n"},
      {"measurement": "Patients with related TEAE: AST increased", "setting": "[1]; Part B, 400 mg, N=49", "value": 0, "unit": "n"},
      {"measurement": "Patients with related TEAE: Back pain", "setting": "[1]; Part B, 400 mg, N=49", "value": 0, "unit": "n"},
      {"measurement": "Patients with related TEAE: Headache", "setting": "[1]; Part B, 400 mg, N=49", "value": 0, "unit": "n"},
      {"measurement": "Patients with related TEAE: Nasopharyngitis", "setting": "[1]; Part B, 400 mg, N=49", "value": 0, "unit": "n"},
      {"measurement": "Patients with related TEAE: Pyrexia", "setting": "[1]; Part B, 400 mg, N=49", "value": 0, "unit": "n"},
      {"measurement": "Patients with related TEAE: Rhinitis allergic", "setting": "[1]; Part B, 400 mg, N=49", "value": 0, "unit": "n"},
      {"measurement": "number of SAEs of grade ≥3", "setting": "[1]; Part B, N=49", "value": 14},
      {"measurement": "laboratory abnormality reported as adverse event: alkaline phosphatase increase", "setting": "[1]; Part B, not considered related", "value": 1},
      {"measurement": "laboratory abnormality reported as adverse event: hyperbilirubinemia", "setting": "[1]; Part B, not considered related", "value": 2},
      {"measurement": "laboratory abnormality reported as adverse event: hypercalcemia", "setting": "[1]; Part B, not considered related", "value": 1},
      {"measurement": "laboratory abnormality reported as adverse event: increase of alanine amino transferase", "setting": "[1]; Part B, not considered related", "value": 3},
      {"measurement": "laboratory abnormality reported as adverse event: increase of aspartate amino transferase", "setting": "[1]; Part B, not considered related", "value": 3},
      {"measurement": "related serious adverse events", "setting": "[1]; whole study", "value": "no related serious adverse events"},
      {"measurement": "Best Overall Response: Complete Response (CR), number of patients", "setting": "[2]; 400 mg PART B (N = 11)", "value": 0, "unit": "n"},
      {"measurement": "Best Overall Response: Partial Response (PR), % of patients", "setting": "[2]; 400 mg PART B (N = 11)", "value": "(27.3) %"},
      {"measurement": "Best Overall Response: Partial Response (PR), number of patients", "setting": "[2]; 400 mg PART B (N = 11)", "value": 3, "unit": "n"},
      {"measurement": "Best Overall Response: Progressive Disease (PD), % of patients", "setting": "[2]; 400 mg PART B (N = 11)", "value": "(18.2) %"},
      {"measurement": "Best Overall Response: Progressive Disease (PD), number of patients", "setting": "[2]; 400 mg PART B (N = 11)", "value": 2, "unit": "n"},
      {"measurement": "Best Overall Response: Stable Disease (SD), % of patients", "setting": "[2]; 400 mg PART B (N = 11)", "value": "(54.5) %"},
      {"measurement": "Best Overall Response: Stable Disease (SD), number of patients", "setting": "[2]; 400 mg PART B (N = 11)", "value": 6, "unit": "n"},
      {"measurement": "Clinical Benefit Rate, % of patients", "setting": "[2]; 400 mg PART B (N = 11)", "value": "(63.6) %"},
      {"measurement": "Clinical Benefit Rate, number of patients", "setting": "[2]; 400 mg PART B (N = 11)", "value": 7, "unit": "n"},
      {"measurement": "Overall Response Rate (confirmed CR and PR), % of patients", "setting": "[2]; 400 mg PART B (N = 11)", "value": "(27.3) %"},
      {"measurement": "Overall Response Rate (confirmed CR and PR), number of patients", "setting": "[2]; 400 mg PART B (N = 11)", "value": 3, "unit": "n"},
      {"measurement": "Best Overall Response: Complete Response (CR), number of patients", "setting": "[2]; [3]", "value": 0, "unit": "n"},
      {"measurement": "Best Overall Response: Partial Response (PR), % of patients", "setting": "[2]; [3]", "value": "(21.4) %"},
      {"measurement": "Best Overall Response: Partial Response (PR), number of patients", "setting": "[2]; [3]", "value": 3, "unit": "n"},
      {"measurement": "Best Overall Response: Progressive Disease (PD), % of patients", "setting": "[2]; [3]", "value": "(21.4) %"},
      {"measurement": "Best Overall Response: Progressive Disease (PD), number of patients", "setting": "[2]; [3]", "value": 3, "unit": "n"},
      {"measurement": "Best Overall Response: Stable Disease (SD), % of patients", "setting": "[2]; [3]", "value": "(57.1) %"},
      {"measurement": "Best Overall Response: Stable Disease (SD), number of patients", "setting": "[2]; [3]", "value": 8, "unit": "n"},
      {"measurement": "Clinical Benefit Rate, % of patients", "setting": "[2]; [3]", "value": "(64.3) %"},
      {"measurement": "Clinical Benefit Rate, number of patients", "setting": "[2]; [3]", "value": 9, "unit": "n"},
      {"measurement": "Overall Response Rate (confirmed CR and PR), % of patients", "setting": "[2]; [3]", "value": "(21.4) %"},
      {"measurement": "Overall Response Rate (confirmed CR and PR), number of patients", "setting": "[2]; [3]", "value": 3, "unit": "n"},
      {"measurement": "CBR", "setting": "[2]; [4]", "value": 35.6, "unit": "%"},
      {"measurement": "ORR", "setting": "[2]; [4]", "value": 6.8, "unit": "%"},
      {"measurement": "CBR", "setting": "[2]; [5]", "value": 64.3, "unit": "%"},
      {"measurement": "ORR", "setting": "[2]; [5]", "value": 21.4, "unit": "%"},
      {"measurement": "CBR", "setting": "[2]; [6]", "value": 46.9, "unit": "%"},
      {"measurement": "ORR", "setting": "[2]; [6]", "value": 12.5, "unit": "%"},
      {"measurement": "Clinical Benefit Rate (CBR)", "setting": "[2]; ESR1 mutated patients (9/28)", "value": 32.1, "unit": "%"},
      {"measurement": "Clinical Benefit Rate (CBR)", "setting": "[2]; patients with wild-type ESR1 (12/30)", "value": 40.0, "unit": "%"},
      {"measurement": "Complete Response (CR)", "setting": "[2]; pooled: All, N=59, by investigator", "value": 0, "unit": "n"},
      {"measurement": "Complete Response (CR)", "setting": "[2]; pooled: Part A >=150 mg, N=13, by investigator", "value": 0, "unit": "n"},
      {"measurement": "Complete Response (CR)", "setting": "[2]; pooled: Part B 400 mg, N=46, by investigator", "value": 0, "unit": "n"},
      {"measurement": "ORR", "setting": "[2]; [7]", "value": 21.4, "unit": "%"},
      {"measurement": "PD", "setting": "[2]; [7]", "value": 21.4, "unit": "%"},
      {"measurement": "PRs", "setting": "[2]; [7]", "value": 21.4, "unit": "%"},
      {"measurement": "CBR", "setting": "[2]; sub-population of 14 patients with neither prior targeted therapies nor SERD (9/14)", "value": 64.3, "unit": "%"},
      {"measurement": "Complete Response (CR)", "setting": "[2]; ≤3 prior lines, not both chemotherapy and CDK4/6 inhibitor, no mTOR inhibitor: All, N=32", "value": 0, "unit": "n"},
      {"measurement": "Complete Response (CR)", "setting": "[2]; ≤3 prior lines, not both chemotherapy and CDK4/6 inhibitor, no mTOR inhibitor: Part A ≥150 mg, N=6", "value": 0, "unit": "n"},
      {"measurement": "Complete Response (CR)", "setting": "[2]; ≤3 prior lines, not both chemotherapy and CDK4/6 inhibitor, no mTOR inhibitor: Part B 400 mg, N=26", "value": 0, "unit": "n"},
      {"measurement": "Best Overall Response: Complete Response (CR), number of patients", "setting": "[2]; ≥150 mg PART A (N = 3)", "value": 0, "unit": "n"},
      {"measurement": "Best Overall Response: Partial Response (PR), number of patients", "setting": "[2]; ≥150 mg PART A (N = 3)", "value": 0, "unit": "n"},
      {"measurement": "Best Overall Response: Progressive Disease (PD), % of patients", "setting": "[2]; ≥150 mg PART A (N = 3)", "value": 33.3, "unit": "%"},
      {"measurement": "Best Overall Response: Progressive Disease (PD), number of patients", "setting": "[2]; ≥150 mg PART A (N = 3)", "value": 1, "unit": "n"},
      {"measurement": "Best Overall Response: Stable Disease (SD), % of patients", "setting": "[2]; ≥150 mg PART A (N = 3)", "value": 66.7, "unit": "%"},
      {"measurement": "Best Overall Response: Stable Disease (SD), number of patients", "setting": "[2]; ≥150 mg PART A (N = 3)", "value": 2, "unit": "n"},
      {"measurement": "Clinical Benefit Rate, % of patients", "setting": "[2]; ≥150 mg PART A (N = 3)", "value": 66.7, "unit": "%"},
      {"measurement": "Clinical Benefit Rate, number of patients", "setting": "[2]; ≥150 mg PART A (N = 3)", "value": 2, "unit": "n"},
      {"measurement": "Overall Response Rate (confirmed CR and PR), number of patients", "setting": "[2]; ≥150 mg PART A (N = 3)", "value": 0, "unit": "n"}
    ]}
  ]
}
